The text below walks through data of patent publication US9889135B2, “Companion diagnostic for CDK4 inhibitors” (Memorial Sloan-Kettering Cancer Center, priority 2013, dated 2018).

Molecules are shown by their SMILES.

In test [1] the test system is DBTRG-05MG glioma cells. Nature of the test: PD-induced growth arrest (BrdU incorporation). The class given is cell-based. The note with it: BrdU incorporation 7 days after treatment. On the procedure: (§1) Cell lines were maintained in DMEM High glucose (HG) supplemented with 10% heat-inactivated fetal bovine serum. Glioma cell lines, DKMG, SNB19, DBTRG-05MG, and […], were maintained in DMEM HG supplemented with 10% fetal bovine serum and 2 mM glutamine. The MCF7 breast cancer cell line was maintained in RPMI-1640 media supplemented with 10% fetal bovine serum and 2 mM glutamine.
(§2) shRNA were delivered in the pLKO.1 vector (Sigma) and infected cells selected using puromycin (1 μg/ml); infection with a virus carrying a scramble control ([…]) was used as a control in all experiments utilizing shRNA. Cell lines were treated with […] or shRNA directed against CDK4 ([…] (SEQ ID NO:4)), MDM2 (M376, […] (SEQ ID NO:5); M380, […] (SEQ ID NO:6)), HAUSP (4057, […] (SEQ ID NO:7); 845, […] (SEQ ID NO:8)) or CDK6 ([…] (SEQ ID NO:9)) for 48 hours to 7 days and stained with BrdU (20 μM for two hours) or annexin V as previously described (22, 48). […] was determined by staining with propidium iodine and FACS analyses (49).
(§3) Cells were stained with BrdU (20 μM for two hours) or annexin V as previously described (22, 48). […] was determined by staining with propidium iodine and FACS analyses (49).
On the technique in general: Uptake of a labelled nucleoside into DNA is a usual measure of proliferation.

Test [2] deals with DKMG glioma cells. Nature of the test: PD-induced growth arrest (BrdU incorporation). The note with it: BrdU incorporation 7 days after treatment. The class given is cell-based. As to the method:
as §1, §2, §3

The subject of test [3] is MCF7 breast cancer cells. Nature of the test: PD-induced growth arrest (BrdU incorporation). Format: cell-based. The following applies: BrdU incorporation 7 days after treatment. As to the method: as §1, §2, §3
Test [4] deals with SNB19 glioma cells. Nature of the test: PD-induced growth arrest (BrdU incorporation). The class given is cell-based. The following applies: BrdU incorporation 7 days after treatment. As to the method: as §1, §2, §3
Test [5] has as its system T98G glioma cells. Put plainly: PD-induced growth arrest (BrdU incorporation). The note with it: BrdU incorporation 7 days after treatment. Format: cell-based. On the procedure: as §1, §2, §3
Test [6] has as its system seven RB-positive patient derived WD/DDLS cell lines. Nature of the test: BrdU incorporation in liposarcoma cell lines. The note with it: asynchronously growing cells, 48 hours. The class given is cell-based, human. As to the method: FIG. 1A-C. […] Mean percentage of BrdU incorporation or annexin V+/7-AAD− cells was calculated from three or more independent experiments. Error bars represent standard deviation (*p<0.05).
Cell lines were developed from WD/DDLS tumors resected from surgical patients after obtaining informed consent. LS8817 and LS0082 have previously been described using the nomenclature DDLS8817 and WD0082. DNA was extracted from cell lines using standard protocols (QIAGEN DNEasy) and lineage confirmed by copy number array to confirm amplification of segment 12q13-15 (Agilent 244K according to manufacturer's specifications). Analysis of comparative genomic hybridization data was performed using a custom pipeline, which conducts the standard circular binary segmentation from the R/bioconductor DNA copy library and processes all samples with the RAE algorithm (47). […]
shRNA were delivered in the pLKO.1 vector (Sigma) and infected cells selected using puromycin (1 μg/ml); infection with a virus carrying a scramble control ([…]) was used as a control in all experiments utilizing shRNA. […] G0 content was determined by staining with propidium iodine and FACS analyses (49).
as §3

The test system of test [7] is LS8107 and LS7785-1 cells. Nature of the test: BrdU incorporation after release into drug-free medium. The class given is cell-based, human. The note with it: after seven days of drug treatment. From the text: (§4) Mean percentage standard deviation). (*p<0.05). (A) Senescence-associated β-galactosidase and (B) HP1γ staining for senescence associated heterochromatic foci (SAHF) formation was quantitated for three or more independent experiments for each cell line. (*p<0.05). Representative phase contrast micrographs of cells stained for SA-β-gal or immunofluorescence staining for HP1γ in two of the cell lines before (ctrl) and after (PD) drug treatment are shown in the insets of FIGS. 2A and 2B, respectively. (C) BrdU incorporation. Cell lines were treated with PD0332991 for seven days, and released into drug-free medium containing BrdU for the number of days indicated. Error bars represent the standard deviation of the mean calculated from three independent trials.

Test [8] relates to LS8817 and LS0082 cells. The test is described as above. Format: cell-based, human. The following applies: after seven days of drug treatment.
Description: as §4

Test [9] relates to cytokine secretion of LS8313 cells. Put plainly: human cytokine array (SASP). Format: cell-based. The note with it: 1 μM, seven days. On the procedure: (§5) FIG. 16. […] Human cytokine arrays were purchased from R&D Technologies (ARY006). […] The media was changed 24 hours prior to harvest. On the day of harvest, the media was collected, spun for 5 minutes at 1200 rpm and filtered through a […] syringe to remove debris. Cells were trypsinized and counted and media volume was adjusted so that an equal number of cells were represented from each sample. Cytokine arrays were performed according to manufacturer's protocol. Signal intensity was measured using ImageJ and a log2 value of the PD/CTRL ratio was calculated.

The subject of test [10] is cytokine secretion of LS8817 cells. Put plainly: human cytokine array (SASP). Format: cell-based. The note with it: 1 μM, seven days. On the procedure:
as §5

Test [11] concerns LS8107, LS7785-10, LS8313 and LS7785-1 cells. Nature of the test: Oil-Red O staining of lipid droplets. Format: cell-based, human.
Test [12] has as its system MDM2 in LS8817 and LS0082 cells. Nature of the test: MDM2 levels by immunoblot, responder cells. The class given is cell-based, human. The note with it: two days. On the procedure:
(A) Immunoblot. […] Tubulin was a loading control. (B) Immunoblot.
Antibodies against CDK4 (3F121), MDM2 (N-20 and SMP14), total RB (IF8), Cyclin A (H432), p16 (C20), p53 (DO-1 and Bp53-12), tubulin (C20) and FLAG (M2) were obtained from Santa Cruz Biotechnology, phospho-Rb 780 (#9307) from Cell Signalling, and ARF (3642) from Abeam, HAUSP (A300-033A) from Bethyl Laboratories. Treated cells were lysed with buffer composed of 50 mM Tris-HCl, pH7.4, 250 mM NaCl, 5 mM EDTA, 0.5% NP40, 2 mM PMSF, and supplemented with protease inhibitors. Eighty micrograms of protein were resolved by SDS-PAGE and transferred to PVDF membranes. Membranes were incubated overnight with antibodies (1:1000). […] Pre-treatment biopsies were collected within two weeks of the first dose and post-treatment biopsies collected after at last three weeks of treatment. Extracts were prepared in 50 mM Tris-HCl, pH7.4, 150 mM NaCl, 1 mM EDTA, 1% NP40, 0.25% sodium deoxycholate and supplemented with mini-protease inhibitor cocktail (Roche). Tumor response was assessed by reference radiologist by CT scan every six weeks for 36 weeks, and every 12 weeks thereafter.
(A western blot detects proteins with antibodies after separation by electrophoresis.)

Test [13] concerns HAUSP and MDM2 interaction in LS8817, LS0082, LS7785-1 and LS7785-10 cells. Put plainly: co-immunoprecipitation of HAUSP and MDM2. Format: cell-based, human. The note with it: two days PD0332991, then 5 μM MG132 for 2 hours; detected in untreated cells. On the procedure: FIG. 25A-D. Turnover of MDM2 is regulated post-translationally. […] Extracts were prepared and MDM2 was immunoprecipitated and the presence of HAUSP and MDM2 in the precipitates were determined by immunoblot. IgG was used as a non-specific antibody control for the immunoprecipitation. […] Tubulin is a loading control. HAUSP levels were reduced with shRNA in the indicated cells lines and the effect on protein expression (C) and the accumulation of senescence-associated (3-galactosidase positive cells measured (D). The mean and standard deviation was compiled from at least two independent experiments with each cell line and a representative immunoblot is shown.

On to `CC(=O)c1c(C)c2cnc(Nc3ccc(N4CCNCC4)cn3)nc2n(C2CCCC2)c1=O` [PD0332991], for which the PD-induced growth arrest entry in test [1], in test [2], in [3], in test [4] and in test [5] was “+ (BrdU incorporation is reduced at least 8X 7 days after treatment with the drug)” each time. Further, the “incorporation of bromodeoxyuridine (BrdU)” value in [6] is listed as “significant reduction”. For the same molecule, the “time to return to the cell cycle after the drug was removed” value in test [7] is at most 48 h. For the same molecule, the “return to the cell cycle after the drug was removed” value in test [8] is given as “did not”. Further, the SASP cytokine secretion entry in test [9] is “only IL-6 secretion increased”. Moreover, the “MIF-1 and PAI-1 secretion” value in [10] is “essentially unchanged”. In addition, in [10], the “secretion of GM-CSF, GROα/CXCL1, IL-6, IL-8 and MCP-1” value is “upregulated”. Moreover, the “Oil-Red O staining” value in [11] is recorded as “not increased”. In [12], the MDM2 reduction entry is listed as “approximately three-fold”. Further, the “interaction of HAUSP and MDM2 detected by co-immunoprecipitation” value in [13] is reported as “not in any of the cells treated”.
